Source: ChEMBL document CHEMBL3400108, “Synthesis and biological evaluation of open-chain analogs of cyclic peptides as inhibitors of cellular Shp2 activity” (Bioorg Med Chem, 2015)
Non-standard residues stand in square brackets, D forms with d. Residues, ends and D or L forms follow the SMILES beside them. Groups on a side chain read outwards from the residue. *: point of attachment. 2Nal = N[C@@H](Cc1ccc2ccccc2c1)C(=O)O; NEt2 = CCN(CC)*

test system: HeLa; assay: Antitumor activity against human HeLa cells; format: functional, cell-based

| Compound | IC50 [µg/mL] |
| --- | --- |
| CCN(CC)C(=O)[C@H](Cc1ccccc1)NC(=O)[C@H](CC(C)C)NC(=O)[C@@H](NC(=O)[C@@H](N)COC(=O)[C@H](CC(C)C)NC(C)=O)C(C)C (H-S([Leu-Ac])VLF-NEt2) | > 50 |
| CCN(CC)C(=O)[C@H](Cc1ccc(OC)cc1)NC(=O)[C@H](CC(C)C)NC(=O)[C@@H](NC(=O)[C@@H](N)COC(=O)[C@H](CC(C)C)NC(C)=O)C(C)C (H-S([Leu-Ac])VLY(Me)-NEt2) | > 50 |
| CCN(CC)C(=O)[C@H](Cc1ccc2ccccc2c1)NC(=O)[C@H](CC(C)C)NC(=O)[C@@H](NC(=O)[C@@H](N)COC(=O)[C@H](CC(C)C)NC(C)=O)C(C)C (H-S([Leu-Ac])VL[2Nal]-NEt2) | > 50 |

test system: MDA-MB-231; assay: Antitumor activity against human MDA-MB-231 cells; format: functional, cell-based

| Compound | IC50 [µg/mL] |
| --- | --- |
| CCN(CC)C(=O)[C@H](Cc1ccccc1)NC(=O)[C@H](CC(C)C)NC(=O)[C@@H](NC(=O)[C@@H](N)COC(=O)[C@H](CC(C)C)NC(C)=O)C(C)C (H-S([Leu-Ac])VLF-NEt2) | > 50 |
| CCN(CC)C(=O)[C@H](Cc1ccc(OC)cc1)NC(=O)[C@H](CC(C)C)NC(=O)[C@@H](NC(=O)[C@@H](N)COC(=O)[C@H](CC(C)C)NC(C)=O)C(C)C (H-S([Leu-Ac])VLY(Me)-NEt2) | > 50 |
| CCN(CC)C(=O)[C@H](Cc1ccc2ccccc2c1)NC(=O)[C@H](CC(C)C)NC(=O)[C@@H](NC(=O)[C@@H](N)COC(=O)[C@H](CC(C)C)NC(C)=O)C(C)C (H-S([Leu-Ac])VL[2Nal]-NEt2) | > 50 |

test system: not listed separately; assay: Inhibition of IMPDH (unknown origin); design: species or system Homo sapiens

| Compound | IC50 [µg/mL] |
| --- | --- |
| CCN(CC)C(=O)[C@H](Cc1ccccc1)NC(=O)[C@H](CC(C)C)NC(=O)[C@@H](NC(=O)[C@@H](N)COC(=O)[C@H](CC(C)C)NC(C)=O)C(C)C (H-S([Leu-Ac])VLF-NEt2) | > 100 |
| CCN(CC)C(=O)[C@H](Cc1ccc(OC)cc1)NC(=O)[C@H](CC(C)C)NC(=O)[C@@H](NC(=O)[C@@H](N)COC(=O)[C@H](CC(C)C)NC(C)=O)C(C)C (H-S([Leu-Ac])VLY(Me)-NEt2) | > 100 |
| CCN(CC)C(=O)[C@H](Cc1ccc2ccccc2c1)NC(=O)[C@H](CC(C)C)NC(=O)[C@@H](NC(=O)[C@@H](N)COC(=O)[C@H](CC(C)C)NC(C)=O)C(C)C (H-S([Leu-Ac])VL[2Nal]-NEt2) | > 100 |

molecular target: Acetylcholinesterase (Homo sapiens, UniProt P22303); assay: Inhibition of AchE (unknown origin)
Sequence (P22303 whole entry): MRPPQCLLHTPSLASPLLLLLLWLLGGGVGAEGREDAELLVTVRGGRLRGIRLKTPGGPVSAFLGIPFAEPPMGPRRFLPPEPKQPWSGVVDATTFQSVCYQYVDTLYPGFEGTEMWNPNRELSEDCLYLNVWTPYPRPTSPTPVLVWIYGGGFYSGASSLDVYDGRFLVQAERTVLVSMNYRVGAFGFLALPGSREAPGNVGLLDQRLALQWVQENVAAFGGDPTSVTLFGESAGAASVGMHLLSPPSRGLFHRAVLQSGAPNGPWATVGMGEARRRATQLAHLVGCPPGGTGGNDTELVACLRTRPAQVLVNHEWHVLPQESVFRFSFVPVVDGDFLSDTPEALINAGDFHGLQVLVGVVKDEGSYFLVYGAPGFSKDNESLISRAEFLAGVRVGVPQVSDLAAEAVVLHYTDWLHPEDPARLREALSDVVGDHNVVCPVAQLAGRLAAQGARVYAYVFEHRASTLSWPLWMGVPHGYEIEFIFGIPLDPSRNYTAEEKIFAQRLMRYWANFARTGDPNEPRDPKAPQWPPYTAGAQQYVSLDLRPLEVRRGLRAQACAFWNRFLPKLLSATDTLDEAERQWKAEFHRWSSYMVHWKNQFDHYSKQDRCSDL

| Compound | IC50 [µM] |
| --- | --- |
| CCN(CC)C(=O)[C@H](Cc1ccccc1)NC(=O)[C@H](CC(C)C)NC(=O)[C@@H](NC(=O)[C@@H](N)COC(=O)[C@H](CC(C)C)NC(C)=O)C(C)C (H-S([Leu-Ac])VLF-NEt2) | > 148 |
| CCN(CC)C(=O)[C@H](Cc1ccc(OC)cc1)NC(=O)[C@H](CC(C)C)NC(=O)[C@@H](NC(=O)[C@@H](N)COC(=O)[C@H](CC(C)C)NC(C)=O)C(C)C (H-S([Leu-Ac])VLY(Me)-NEt2) | > 142 |
| CCN(CC)C(=O)[C@H](Cc1ccc2ccccc2c1)NC(=O)[C@H](CC(C)C)NC(=O)[C@@H](NC(=O)[C@@H](N)COC(=O)[C@H](CC(C)C)NC(C)=O)C(C)C (H-S([Leu-Ac])VL[2Nal]-NEt2) | > 138 |

test system: Proteasome; assay: Inhibition of proteasome (unknown origin); format: subcellular, Homo sapiens

| Compound | IC50 [µg/mL] |
| --- | --- |
| CCN(CC)C(=O)[C@H](Cc1ccccc1)NC(=O)[C@H](CC(C)C)NC(=O)[C@@H](NC(=O)[C@@H](N)COC(=O)[C@H](CC(C)C)NC(C)=O)C(C)C (H-S([Leu-Ac])VLF-NEt2) | > 100 |
| CCN(CC)C(=O)[C@H](Cc1ccc(OC)cc1)NC(=O)[C@H](CC(C)C)NC(=O)[C@@H](NC(=O)[C@@H](N)COC(=O)[C@H](CC(C)C)NC(C)=O)C(C)C (H-S([Leu-Ac])VLY(Me)-NEt2) | > 100 |
| CCN(CC)C(=O)[C@H](Cc1ccc2ccccc2c1)NC(=O)[C@H](CC(C)C)NC(=O)[C@@H](NC(=O)[C@@H](N)COC(=O)[C@H](CC(C)C)NC(C)=O)C(C)C (H-S([Leu-Ac])VL[2Nal]-NEt2) | > 100 |

molecular target: T1, Monoglyceride lipase (Homo sapiens, UniProt Q99685); assay: Inhibition of MAGL (unknown origin)
T1 sequence (Q99685 whole entry): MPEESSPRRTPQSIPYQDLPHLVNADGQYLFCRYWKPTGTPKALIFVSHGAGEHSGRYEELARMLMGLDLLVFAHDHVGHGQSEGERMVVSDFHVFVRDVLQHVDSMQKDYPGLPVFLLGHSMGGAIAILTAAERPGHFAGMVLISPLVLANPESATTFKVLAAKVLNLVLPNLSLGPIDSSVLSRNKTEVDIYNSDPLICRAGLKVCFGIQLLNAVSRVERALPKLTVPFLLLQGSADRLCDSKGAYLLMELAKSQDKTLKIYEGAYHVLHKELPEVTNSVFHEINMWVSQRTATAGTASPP

| Compound | IC50 [µM] |
| --- | --- |
| CCN(CC)C(=O)[C@H](Cc1ccccc1)NC(=O)[C@H](CC(C)C)NC(=O)[C@@H](NC(=O)[C@@H](N)COC(=O)[C@H](CC(C)C)NC(C)=O)C(C)C (H-S([Leu-Ac])VLF-NEt2) | > 148 |
| CCN(CC)C(=O)[C@H](Cc1ccc(OC)cc1)NC(=O)[C@H](CC(C)C)NC(=O)[C@@H](NC(=O)[C@@H](N)COC(=O)[C@H](CC(C)C)NC(C)=O)C(C)C (H-S([Leu-Ac])VLY(Me)-NEt2) | > 142 |
| CCN(CC)C(=O)[C@H](Cc1ccc2ccccc2c1)NC(=O)[C@H](CC(C)C)NC(=O)[C@@H](NC(=O)[C@@H](N)COC(=O)[C@H](CC(C)C)NC(C)=O)C(C)C (H-S([Leu-Ac])VL[2Nal]-NEt2) | > 138 |

molecular target: Cathepsin B (Homo sapiens, UniProt P07858); assay: Inhibition of cathepsin B (unknown origin)

| Compound | IC50 [µM] |
| --- | --- |
| CCN(CC)C(=O)[C@H](Cc1ccccc1)NC(=O)[C@H](CC(C)C)NC(=O)[C@@H](NC(=O)[C@@H](N)COC(=O)[C@H](CC(C)C)NC(C)=O)C(C)C (H-S([Leu-Ac])VLF-NEt2) | > 148 |
| CCN(CC)C(=O)[C@H](Cc1ccc(OC)cc1)NC(=O)[C@H](CC(C)C)NC(=O)[C@@H](NC(=O)[C@@H](N)COC(=O)[C@H](CC(C)C)NC(C)=O)C(C)C (H-S([Leu-Ac])VLY(Me)-NEt2) | > 142 |
| CCN(CC)C(=O)[C@H](Cc1ccc2ccccc2c1)NC(=O)[C@H](CC(C)C)NC(=O)[C@@H](NC(=O)[C@@H](N)COC(=O)[C@H](CC(C)C)NC(C)=O)C(C)C (H-S([Leu-Ac])VL[2Nal]-NEt2) | > 138 |

molecular target: T2, Tyrosine-protein phosphatase non-receptor type 11 (Homo sapiens) (UniProt Q06124); assay: Inhibition of SHP2 (unknown origin) at 100 uM
T2 sequence (whole entry): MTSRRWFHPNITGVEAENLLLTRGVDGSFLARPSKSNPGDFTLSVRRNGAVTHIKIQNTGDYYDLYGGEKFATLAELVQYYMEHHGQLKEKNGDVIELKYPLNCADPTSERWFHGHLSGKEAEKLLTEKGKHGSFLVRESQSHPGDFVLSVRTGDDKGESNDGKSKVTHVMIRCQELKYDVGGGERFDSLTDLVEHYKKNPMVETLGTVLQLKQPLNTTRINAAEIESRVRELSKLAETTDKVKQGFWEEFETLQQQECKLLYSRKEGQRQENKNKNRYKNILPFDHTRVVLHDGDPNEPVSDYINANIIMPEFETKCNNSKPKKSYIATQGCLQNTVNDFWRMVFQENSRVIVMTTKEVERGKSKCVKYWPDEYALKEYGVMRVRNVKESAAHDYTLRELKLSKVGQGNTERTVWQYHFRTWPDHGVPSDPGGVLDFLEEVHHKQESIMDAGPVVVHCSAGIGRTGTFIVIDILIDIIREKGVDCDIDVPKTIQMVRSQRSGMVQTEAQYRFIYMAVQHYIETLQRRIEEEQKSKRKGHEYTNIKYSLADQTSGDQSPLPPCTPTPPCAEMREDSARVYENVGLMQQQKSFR

| Compound | inhibition [%] |
| --- | --- |
| CCN(CC)C(=O)[C@H](Cc1ccccc1)NC(=O)[C@H](CC(C)C)NC(=O)[C@@H](NC(=O)[C@@H](N)COC(=O)[C@H](CC(C)C)NC(C)=O)C(C)C (H-S([Leu-Ac])VLF-NEt2) | 94 |
| CCN(CC)C(=O)[C@H](Cc1ccc(OC)cc1)NC(=O)[C@H](CC(C)C)NC(=O)[C@@H](NC(=O)[C@@H](N)COC(=O)[C@H](CC(C)C)NC(C)=O)C(C)C (H-S([Leu-Ac])VLY(Me)-NEt2) | 92 |
| CCN(CC)C(=O)[C@H](Cc1ccc2ccccc2c1)NC(=O)[C@H](CC(C)C)NC(=O)[C@@H](NC(=O)[C@@H](N)COC(=O)[C@H](CC(C)C)NC(C)=O)C(C)C (H-S([Leu-Ac])VL[2Nal]-NEt2) | 93 |

molecular target: T2, Tyrosine-protein phosphatase non-receptor type 11 (Homo sapiens); assay: Inhibition of SHP2 (unknown origin) at 50 uM

| Compound | inhibition [%] |
| --- | --- |
| CCN(CC)C(=O)[C@H](Cc1ccccc1)NC(=O)[C@H](CC(C)C)NC(=O)[C@@H](NC(=O)[C@@H](N)COC(=O)[C@H](CC(C)C)NC(C)=O)C(C)C (H-S([Leu-Ac])VLF-NEt2) | 83 |
| CCN(CC)C(=O)[C@H](Cc1ccc(OC)cc1)NC(=O)[C@H](CC(C)C)NC(=O)[C@@H](NC(=O)[C@@H](N)COC(=O)[C@H](CC(C)C)NC(C)=O)C(C)C (H-S([Leu-Ac])VLY(Me)-NEt2) | 52 |
| CCN(CC)C(=O)[C@H](Cc1ccc2ccccc2c1)NC(=O)[C@H](CC(C)C)NC(=O)[C@@H](NC(=O)[C@@H](N)COC(=O)[C@H](CC(C)C)NC(C)=O)C(C)C (H-S([Leu-Ac])VL[2Nal]-NEt2) | 46 |

molecular target: T2, Tyrosine-protein phosphatase non-receptor type 11 (Homo sapiens); assay: Inhibition of SHP2 (unknown origin) at 20 uM

| Compound | inhibition [%] |
| --- | --- |
| CCN(CC)C(=O)[C@H](Cc1ccccc1)NC(=O)[C@H](CC(C)C)NC(=O)[C@@H](NC(=O)[C@@H](N)COC(=O)[C@H](CC(C)C)NC(C)=O)C(C)C (H-S([Leu-Ac])VLF-NEt2) | 40 |
| CCN(CC)C(=O)[C@H](Cc1ccc(OC)cc1)NC(=O)[C@H](CC(C)C)NC(=O)[C@@H](NC(=O)[C@@H](N)COC(=O)[C@H](CC(C)C)NC(C)=O)C(C)C (H-S([Leu-Ac])VLY(Me)-NEt2) | 34 |
| CCN(CC)C(=O)[C@H](Cc1ccc2ccccc2c1)NC(=O)[C@H](CC(C)C)NC(=O)[C@@H](NC(=O)[C@@H](N)COC(=O)[C@H](CC(C)C)NC(C)=O)C(C)C (H-S([Leu-Ac])VL[2Nal]-NEt2) | 27 |

molecular target: T2, Tyrosine-protein phosphatase non-receptor type 11 (Homo sapiens); assay: Inhibition of SHP2 (unknown origin) at 25 uM

| Compound | inhibition [%] |
| --- | --- |
| CCN(CC)C(=O)[C@H](Cc1ccccc1)NC(=O)[C@H](CC(C)C)NC(=O)[C@@H](NC(=O)[C@@H](N)COC(=O)[C@H](CC(C)C)NC(C)=O)C(C)C (H-S([Leu-Ac])VLF-NEt2) | 46 |

molecular target: T2, Tyrosine-protein phosphatase non-receptor type 11 (Homo sapiens); assay: Inhibition of SHP2 (unknown origin) at 10 uM

| Compound | inhibition [%] |
| --- | --- |
| CCN(CC)C(=O)[C@H](Cc1ccccc1)NC(=O)[C@H](CC(C)C)NC(=O)[C@@H](NC(=O)[C@@H](N)COC(=O)[C@H](CC(C)C)NC(C)=O)C(C)C (H-S([Leu-Ac])VLF-NEt2) | 31 |

molecular target: T2, Tyrosine-protein phosphatase non-receptor type 11 (Homo sapiens); assay: Inhibition of SHP2 (unknown origin) at 5 uM

| Compound | inhibition [%] |
| --- | --- |
| CCN(CC)C(=O)[C@H](Cc1ccccc1)NC(=O)[C@H](CC(C)C)NC(=O)[C@@H](NC(=O)[C@@H](N)COC(=O)[C@H](CC(C)C)NC(C)=O)C(C)C (H-S([Leu-Ac])VLF-NEt2) | 12 |

molecular target: T3, Tyrosine-protein phosphatase non-receptor type 11 (Homo sapiens, UniProt Q06124); assay: Inhibition of SHP2 (unknown origin)
T3 sequence (Q06124 whole entry): T2 sequence (whole entry)

| Compound | IC50 [µM] |
| --- | --- |
| CCN(CC)C(=O)[C@H](Cc1ccccc1)NC(=O)[C@H](CC(C)C)NC(=O)[C@@H](NC(=O)[C@@H](N)COC(=O)[C@H](CC(C)C)NC(C)=O)C(C)C (H-S([Leu-Ac])VLF-NEt2) | 36.8 |
